{
  "source": "patent US20210113659A1",
  "about": "“ENGINEERED THERAPEUTIC TO ENHANCE CYTOTOXIC ACTIVITY AND PHAGOCYTOSIS IN TUMOR ASSOCIATED MACROPHAGES” (University of Massachusetts, priority 2019, published 2021)",
  "test_system": "4T1 cells or B16 F10 cells",
  "experiment": "Cytotoxic efficacy using MTS assay",
  "assay_type": "cell-based",
  "settings": "lower concentrations, 72 h",
  "method": "Cytotoxic Efficacy of DNTs Using MTS Assay: 5×10^3 4T1 cells or B16 F10 cells per well were seeded in a 96 well plate and left overnight to adhere. The cells were serum starved for 6 h by incubating them in serum free basal medium. The cells were incubated with either free drugs or DNTs of equivalent free drug concentrations for 72 h. The cells were washed with PBS and the medium was replaced with phenol red free DMEM followed by incubation in a mixture of MTS and PMS (1:20) solution for 30 min. Absorbance was measured at 480 nm using a BioTek plate reader. The data was analyzed using graph pad.",
  "data": [
    {"molecule": "CC1(N)CCN(c2cnc(-c3cccc(Cl)c3Cl)c(N)n2)CC1.Cl.Cl", "note": "[SHP099, 6-(4-Amino-4-methylpiperidin-1-yl)-3-(2,3-dichlorophenyl)pyrazin-2-amine dihydrochloride]", "values": [
      {"measurement": "effect on the viability of cancer cells", "result": "did not have a significant effect"}
    ]}
  ]
}
